In US10206986B2, “Annexin II variant compositions and methods” (REGENTS OF THE UNIVERSITY OF MINNESOTA, priority 2013, dated 2019):

Legend:
hTLR2 = target: T1, hTLR2 (Homo sapiens, UniProt O60603); experiment: TLR2-transfected HEK 293 Blue cells, secreted alkaline phosphatase (NF-κB activity); format: cell-based; conditions: 48 hours, FIGS. 3, 6, 7
T1 construct: host or cells: HEK 293 Blue Cells
Text: (§1) To test if the 35 amino acid N-terminus of annexin II, which distinguishes annexin II from other annexins, contains adjuvant activity, we pulsed bone marrow-derived dendritic cells (BMDC) with gp100+/−A2OVA, fusion peptide containing this 35 amino acid fragment. […] We then tested whether this fusion peptide enhanced adjuvant activity over that of addition of OVA and full length annexin II protein. BMDC were pulsed with A2OVA and we measured the OVA-specific OT-1 CD8 T cell response. […] To further investigate the ability to derive a novel single antigen fusion peptide, we constructed OVA fusion peptides in which an OVA peptide (SEQ ID NO:9) was fused to either an annexin II N-terminal fragment or a scrambled 35 amino acid peptide to produce SEQ ID NO:30 and SEQ ID NO:29, respectively. Peptides were pulsed on TLR2 transfected cells and alkaline phosphatase activity was used to determine NF-κB activity (FIG. 3).
HEK 293 Blue Cells (Invivogen, San Diego, Calif.) stably transfected with hTLR2 were pulsed with annexin II-OVA fusion protein (A2OVA, SEQ ID NO:32) at equal concentration as annexin II monomer (A2 Peptide, SEQ ID NO:28). Scrambled annexin II N-terminus polypeptide (SEQ ID NO:29, Scrambled) and an annexin II fragment (SEQ ID NO:30, Minus p11) were used as controls. Cells were incubated for 48 hours. Following incubation, supernatant was added to Quanti-Blue (Invivogen, San Diego, Calif.) for secreted alkaline phosphatase detection.
(§2) TLR2-transfected HEK 293 Blue Cells and TLR4-transfected HEK 293 Blue Cells (Invivogen, San Diego, Calif.) were pulsed with the N-terminal 15 amino acid annexin II fragment peptide (15aa Peptide, SEQ ID NO:5) at different concentrations. Cells were incubated for 48 hours. Following incubation, supernatant was added to Quanti-Blue (Invivogen, San Diego, Calif.) for secreted alkaline phosphatase detection.
as §2, with “or one of the annexin II variants shown in Table 1.” for “at different concentrations.”

breast tumor = experiment: Breast-tumor-bearing mice vaccinated intraperitoneally, tumor growth and survival; format: in vivo, BALB/c mice; conditions: 10 consecutive days intraperitoneally; for survival of tumor bearing mice: breast tumor bearing BALB/c mice, compared to saline or scrambled control, FIG. 5
Protocol: (§3) Next, we investigated the use of the A2OVA in vivo. A2OVA peptide (SEQ ID NO:32) was given to non-tumor bearing mice as described in FIG. 4A to see if they would elicit an OVA specific T cell response. […] To determine if the 35 amino acid annexin II fragment can extend survival in tumor bearing animals in an antigen non-specific manner, we used breast tumor bearing BALB/c mice, which lack the MHC haplotype to present SIINFEKL. Mice were treated with A2OVA peptide as summarized in FIG. 5A and followed for survival.

[1] = system: bone marrow derived dendritic cells; experiment: BMDCs (wild-type, TLR4-/-, MyD88-/-) pulsed with peptide, TNF in supernatant by bead array; format: cell-based, mice; conditions: 50 μg peptide, 48 hours, TLR4 knockout and MyD88 knockout BMDCs, FIG. 10
Protocol: To determine the 15 amino acid N-terminal annexin II fragment's activity on dendritic cells, BMDCs were derived for wild-type, TLR4 knockout, and MyD88 knockout mice. The various BMDCs and pulsed with the 15 amino acid N-terminal annexin II fragment (SEQ ID NO:5).
BMDCs (wild-type, TLR4^−/−, and MyD88^−/−) were cultured with 20 ng/mL GM-CSF for six days, then pulsed with 50 ng Pam3CSK4, 50 ng LPS, or 50 μg of the N-terminal 15 amino acid annexin II fragment peptide (SEQ ID NO:5, A2-15aa). After 48 hours, cell culture supernatant was assayed for TNF by bead array.

[2] = system: bone marrow derived dendritic cells; experiment: BMDCs (wild-type, TLR2-/-, TLR4-/-, MyD88-/-) pulsed with peptide, CD80/CD86 by flow cytometry; format: cell-based, mice; conditions: 50 μg peptide, 48 hours, TLR2, TLR4 and MyD88 knockout BMDCs, CD11c+MHCII+ gate; for CD80 co-stimulatory molecule expression (MFI): FIG. 11; for CD86 co-stimulatory molecule expression (MFI): FIG. 12
Protocol: To further characterize the activity of the A-6 variant (SEQ ID NO:17), BMDCs from wild-type, TLR2 knockout, TLR4 knockout, and MyD88 knockout mice were pulsed with the peptide and analyzed for co-stimulatory molecules CD80 (FIG. 11) and CD86 (FIG. 12).
BDMCs (wild-type, TLR2^−/−, TLR4^−/−, and MyD88^−/−) were cultured with 20 ng/mL GM-CSF for six days, then pulsed with 50 ng Pam3CSK4, 50 ng LPS, 50 μg of the N-terminal 15 amino acid annexin II fragment peptide (SEQ ID NO:5, 15aa A2p), or 50 μg of annexin II variant A-6 (SEQ ID NO:17, 15aa A2p6 AL). After 48 hours, cells were stained for CD11c, MHC II, CD80, and CD86 and analyzed by flow cytometry. MFI shown is from a live cell, CD11c^+MHCII^+ gate.

TLR4 = target: T2, TLR4 (Homo sapiens, UniProt O00206); experiment: TLR4-transfected HEK 293 Blue cells, secreted alkaline phosphatase (NF-κB activity); format: cell-based; conditions: 48 hours, FIGS. 6, 7
T2 construct: host or cells: HEK 293 Blue Cells
T2 sequence (O00206 24-839, species assumed): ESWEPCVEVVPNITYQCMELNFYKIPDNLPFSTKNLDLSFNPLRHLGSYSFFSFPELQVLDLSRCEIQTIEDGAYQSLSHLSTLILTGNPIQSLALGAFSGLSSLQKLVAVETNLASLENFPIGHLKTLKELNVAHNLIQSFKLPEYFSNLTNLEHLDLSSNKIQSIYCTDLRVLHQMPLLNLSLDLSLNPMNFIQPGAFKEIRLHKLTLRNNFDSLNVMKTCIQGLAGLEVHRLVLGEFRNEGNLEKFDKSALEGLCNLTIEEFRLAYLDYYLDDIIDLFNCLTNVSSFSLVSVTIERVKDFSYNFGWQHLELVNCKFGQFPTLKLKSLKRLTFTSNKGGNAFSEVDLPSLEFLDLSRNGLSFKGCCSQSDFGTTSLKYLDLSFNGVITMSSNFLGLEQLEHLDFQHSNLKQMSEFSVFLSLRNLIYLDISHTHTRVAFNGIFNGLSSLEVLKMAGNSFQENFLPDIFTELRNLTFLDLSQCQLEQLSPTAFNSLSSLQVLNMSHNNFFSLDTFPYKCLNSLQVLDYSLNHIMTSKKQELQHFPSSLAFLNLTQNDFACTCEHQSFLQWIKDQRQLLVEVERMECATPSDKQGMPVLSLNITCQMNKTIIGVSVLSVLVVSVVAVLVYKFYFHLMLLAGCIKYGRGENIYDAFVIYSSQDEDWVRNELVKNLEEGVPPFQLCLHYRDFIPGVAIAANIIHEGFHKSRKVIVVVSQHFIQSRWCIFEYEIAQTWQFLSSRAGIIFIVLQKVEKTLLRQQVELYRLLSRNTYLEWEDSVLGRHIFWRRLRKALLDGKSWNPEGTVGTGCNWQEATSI
T2 sequence (Q9Y6Y9 17-160 partner limits assumed, species assumed): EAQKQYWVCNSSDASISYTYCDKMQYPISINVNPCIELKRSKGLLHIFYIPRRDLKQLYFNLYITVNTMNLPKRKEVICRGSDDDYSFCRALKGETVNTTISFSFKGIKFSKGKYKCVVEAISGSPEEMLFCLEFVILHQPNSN
Text: To better characterize the 35 amino acid N-terminus as an adjuvant, we serially removed five amino acids from the C-terminus end of the N-terminal fragment to produce annexin II variants SEQ ID NO:2, SEQ ID NO:3, SEQ ID NO:4, SEQ ID NO:5, and SEQ ID NO:6. We tested the resulting peptides for NF-κB activity. […] To test the ability of the 15 amino acid annexin II fragment (SEQ ID NO:5) to stimulate an immune response, and to determine whether its ability to do so is mediated through TLR2, wild-type and TLR-2 knockout mice were given OVA±annexin II or OVA±the 15 amino acid N-terminal annexin II fragment (SEQ ID NO:5).
as §2
TLR2-transfected HEK 293 Blue Cells and TLR4-transfected HEK 293 Blue Cells (Invivogen, San Diego, Calif.) were pulsed with the N-terminal 15 amino acid annexin II fragment peptide (15aa Peptide, SEQ ID NO:5) or one of the annexin II variants shown in Table 1. Cells were incubated for 48 hours. […]

[3] = system: OVA specific CD8+ T cell response; experiment: Vaccination of BL/6 mice, CD8+SIINFEKL+ expansion in whole blood on Day 8; format: in vivo; conditions: four consecutive days, hind leg
Protocol: as §3
BL/6 mice also were vaccinated for four consecutive days in the hind leg with ovalbumin (OVA), ovalbumin+ and 50 μg of the N-terminal 15 amino acid annexin II fragment peptide (SEQ ID NO:5, 15aa), or ovalbumin+50 μg the annexin II variant A-6 (Table 1, SEQ ID NO:17, 15aaP6). On Day 8, mice were bled and whole blood was analyzed for CD8^+SIINFEKL^+ expansion.

[4] = system: gp100-specific CD8 T cell response; experiment: BMDCs pulsed with hgp100 25-33 plus peptide, co-cultured with Pmel CD8+ T cells, IFN-γ by bead array; format: cell-based, C57BL/6 mice; conditions: BMDC pulsed with gp100 +/- A2OVA; equal concentration and equal molecular ratio compared to full-length annexin II; FIG. 1
Text: as §1
Bone marrow derived dendritic cells (BMDCs) were differentiated from C57BL/6 mice and pulsed with hgp10025-33 (SEQ ID NO: 27) with annexin II-OVA fusion protein (SEQ ID NO:32) at equal concentration (*) or equal molecular ratio (**) as A2 monomer (SEQ ID NO:28) and incubated for 24 hours. Annexin A2 monomer was used as a positive control. […] IFN-γ in the tissue culture supernatant was quantified by bead array.

[5] = system: OVA-specific OT-1 CD8 T cell response; experiment: BMDCs pulsed with OVA peptide/fusion, co-cultured with OT-I CD8+ T cells, IFN-γ by bead array; format: cell-based, mice; conditions: BMDC pulsed with A2OVA versus A2 monomer + OVA as separate agents; FIG. 2
Text: as §1
BMDCs were pulsed with OVA248-274 (SEQ ID NO:31), annexin II (A2 monomer, SEQ ID NO:28), a combination of OVA248-274 and annexin II (A2 monomer+OVA), or annexin II-OVA fusion protein (A2OVA, SEQ ID NO:32), and incubated for 24 hours. Purified OT-I CD8^+ T cells were added and co-cultured for an additional 48 hours. IFN-γ in the tissue culture supernatant was quantified by bead array.

T1 sequence (O60603 21-784): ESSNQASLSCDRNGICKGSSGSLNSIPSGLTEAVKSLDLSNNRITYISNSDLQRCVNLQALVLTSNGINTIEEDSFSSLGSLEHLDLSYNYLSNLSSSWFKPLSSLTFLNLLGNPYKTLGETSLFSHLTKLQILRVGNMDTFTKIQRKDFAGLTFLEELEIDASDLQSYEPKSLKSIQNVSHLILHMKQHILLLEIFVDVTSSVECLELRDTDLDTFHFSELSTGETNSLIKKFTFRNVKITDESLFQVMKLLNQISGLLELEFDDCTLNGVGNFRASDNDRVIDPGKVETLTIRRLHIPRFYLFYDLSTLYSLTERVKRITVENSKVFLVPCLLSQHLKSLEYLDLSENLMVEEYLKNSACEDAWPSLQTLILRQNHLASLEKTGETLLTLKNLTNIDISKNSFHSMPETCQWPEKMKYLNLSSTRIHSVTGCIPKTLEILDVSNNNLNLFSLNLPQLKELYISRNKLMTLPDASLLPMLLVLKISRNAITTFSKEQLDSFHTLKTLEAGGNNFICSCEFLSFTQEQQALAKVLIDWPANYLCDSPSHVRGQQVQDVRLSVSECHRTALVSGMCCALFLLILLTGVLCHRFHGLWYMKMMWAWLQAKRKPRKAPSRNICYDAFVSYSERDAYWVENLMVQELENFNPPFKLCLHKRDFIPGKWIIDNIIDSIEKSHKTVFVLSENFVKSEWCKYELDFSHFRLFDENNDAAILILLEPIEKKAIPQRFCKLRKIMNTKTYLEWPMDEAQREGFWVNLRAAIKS

NF-κB activity through TLR4 (alkaline phosphatase) (TLR4)	Sequence	NF-κB activity through TLR2 (alkaline phosphatase) (hTLR2)	survival of tumor bearing mice (breast tumor)	TNF secretion from BMDCs [1]	CD80 co-stimulatory molecule expression (MFI) [2]	CD86 co-stimulatory molecule expression (MFI) [2]	OVA specific T cell priming in vivo (CD8+SIINFEKL+ expansion) ([3]; BL/6 mice, ovalbumin + 50 μg peptide, Day 8, versus 15aa fragment, FIG. 9)	adjuvant activity in gp100-specific CD8 T cell response (IFN-γ) [4]	IFNγ response of OVA-specific OT-1 CD8 T cells [5]	antigen specific CD8+ T cell response in vivo (CD8+SIINFEKL+ expansion) ([3]; non-tumor bearing BL/6 mice, Poly:ICLC and 50 μg peptide, Day 8, FIG. 4B)	tumor size (breast tumor; breast tumor bearing mice, FIG. 5B)
–	DHSTPPSAYGSVKPYTNFDAEEQLESIINFEKLTEWT (DHSTPPSAYGSVKPYTNFDAEEQLESIINFEKLTEWT; annexin II peptide fragment minus p11) [SEQ ID NO:30, reference compound]	did not elicit a response	conferred no survival benefit	–	–	–	–	–	–	–	–
–	STVHEILCKL SLEGD (STVHEILCKLSLEGD; annexin II variant polypeptide) [SEQ ID NO:5, N-terminal 15 amino acid annexin II fragment peptide]	activated TLR2	–	mediated induction of TNF secretion and that the activity is MyD88-dependent	increased CD80 and CD86 co-stimulatory molecule expression in a TLR4- and MyD88-dependent manner	increased CD80 and CD86 co-stimulatory molecule expression in a TLR4- and MyD88-dependent manner	–	–	–	–	–
enhanced TLR2 and TLR4 signaling	STVHEALCKL SLEGD (STVHEALCKLSLEGD; annexin II variant polypeptide) [A-6, alanine for isoleucine substitution at position six of a 15 amino acid annexin II fragment]	enhanced TLR2 and TLR4 signaling	–	–	increased CD80 and CD86 co-stimulatory molecule expression in a TLR4- and MyD88-dependent manner	increased CD80 and CD86 co-stimulatory molecule expression in a TLR4- and MyD88-dependent manner	enhanced OVA specific T cell priming in vivo	–	–	–	–
–	STVHEILCKLSLEGDHSTPPSAYGSVKPYTNFDAEEQLESIINFEKLTEWT (STVHEILCKLSLEGDHSTPPSAYGSVKPYTNFDAEEQLESIINFEKLTEWT; annexin II-OVA fusion protein (A2OVA) polypeptide) [fusion peptide of the 35 amino acid annexin II N-terminus and OVA peptide]	stimulated NF-κB through TLR2	enhanced survival compared to saline or scrambled control	–	–	–	–	exerted adjuvant activity	induced an IFNγ response superior to that of A2 monomer (A2m)+OVA added as separate agents	stimulated an antigen specific CD8^+ T cell response in vivo	reducing tumor size in vivo
